{"source": "paper PMC11992225", "about": "“Antibacterial compounds against non-growing and intracellular bacteria” (npj Antimicrobials and Resistance, 2025)", "key": {"[1]": {"system": "non-growing S. aureus DSM2569", "experiment": "Dilution-regrowth assay (OD600, start-growth-time) on stationary-phase S. aureus", "type": "cell-based, Staphylococcus aureus", "conditions": "S. aureus; for EC50: Staphylococcus aureus, DSM2569, regrowth delay of non-growing bacteria, 1:4 CA-MHB pH 7.4, 24 h treatment, OD600 8 h after dilution, read-out: EC50", "protocol": "The cultures were grown and treated for 24 h in 1:4 CA-MHB (pH 7.4).\nThis approach allowed us to capture the time when cultures reached a threshold optical density (start-growth-time, SGT[15]).\nThe cultures were incubated for 24 h in non-baffled Erlenmeyer flasks at 37 °C with shaking at 200 rpm.\nFor P. aeruginosa and S. aureus, dose–response analysis was conducted in 96-well plates with a 200 μl assay volume, following the procedure used for screening assay validation experiments. […] Stock solutions were prepared and stored according to the manufacturers’ instructions, then diluted in 10% DMSO before use. Cultures were incubated for 24 h in 1:4 diluted CA-MHB medium under the same conditions used for UPEC cultivation. In preliminary experiments, each compound was tested at a concentration of 20 μM in the dilution-regrowth assay with 4 technical replicates. Regrowth was monitored using a microplate reader at 37 °C with continuous shaking, and OD600 was recorded every 20 min. The time at which OD600 exceeded the threshold of 0.12 was recorded as the Start_Growth-Time.\nStatistical significance of the drug effects was assessed using a one-way ANOVA followed by Dunnett’s test, comparing each treatment to the drug-free control. Statistical significance of the differences in chemical characteristics between the hit compounds and the Prestwick library was assessed using a Mann–Whitney test. Statistical significance was set at P ≤ 0.05. A five-parameter logistic equation was used for asymmetric sigmoidal curve fitting and for EC50 and IC50 determination. The Venn diagram in Fig. 1F was prepared using BioVenn web application. Characteristics of the chemical and physical properties of Prestwick library compounds were obtained from Supplementary Table S1 from reference. Characteristics of the hit compounds not included in the Prestwick library were retrieved from the PubChem database."}, "[2]": {"system": "non-growing P. aeruginosa", "experiment": "Time-dependent effects of drug treatment on regrowth, P. aeruginosa", "type": "cell-based, Pseudomonas aeruginosa", "conditions": "10 µM, OD600 8 h after dilution", "protocol": "(§1) For screening and concentration-dependent characterization of the hit compounds, we used a 24-h incubation to capture their effects, although the actual onset of their activity may occur much sooner. To assess the speed of action, we treated stationary-phase cultures of three organisms with compounds that had previously shown a strong regrowth delay at 10 µM. We selected compounds that, in earlier tests, strongly delayed regrowth, such that diluted cultures remained below an OD600 of 0.12 (indicating no growth) after 6 h for UPEC or 8 h for P. aeruginosa and S. aureus in drug-free medium.\n(§2) We collected samples at different times during the 24-h incubation, diluted them 2500-fold, and measured the OD600 after 6 or 8 h of further incubation, respectively. […] Rifampicin acts quickly against non-growing S. aureus, while the effects of the other compounds increase gradually during incubation but are already apparent within the first hour of treatment.\nBacteria were cultivated in 1:4 diluted CA-MHB (40 mM HEPES, pH 7.4) for 24 h. Aliquots were dispensed into a 96-well plate, and compounds were added at a 10 µM concentration. Samples were collected at designated time points, diluted 2500-fold as described for the dilution-regrowth assay, and incubated in standing plates within a humid box at 37 °C. The OD600 of the samples was measured to assess regrowth using a microplate reader (BioTek Synergy H1) after 6 h for UPEC and 8 h for P. aeruginosa and S. aureus. The experiment was performed in triplicates."}, "[3]": {"system": "TC7 cells", "experiment": "TC7 cell viability upon drug exposure, MTS assay", "type": "cell-based", "conditions": "at the MIC concentrations, 12 h, no bacteria", "protocol": "TC7 cells were grown to confluence in transparent 96-well cell culture plates (TPP) in the same cell culture medium used for the in vitro infection assay. Just prior to the experiment, the medium was discarded, and the cells were washed twice with sterile PBS to remove any traces of medium or dead cells. […] The plate was incubated at 37 °C in a CO2 incubator for 12 h, under the same conditions as the infection assay.\nThe 3-(4,5-dimethylthiazol-2-yl)-5-(3-carboxymethoxyphenyl)-2-(4-sulfophenyl)-2H-tetrazolium (MTS) assay was performed using the CellTiter 96® AQueous One Solution Cell Proliferation Assay kit (Promega), according to the manufacturer’s instructions. Briefly, 20 μl of CellTiter 96 AQueous One Solution Reagent was added to each well, and the plate was incubated for 2 h at 37 °C in a CO2 incubator. The OD490 of the samples was measured using a Spark multimode plate reader (Tecan). The raw values were normalized to the control wells incubated with infection buffer only. The experiment was performed in duplicate."}, "[4]": {"system": "SOS response in UPEC CFT073", "experiment": "SOS response induction analysis, pAED2 cda' promoter mScarlet-I reporter", "type": "cell-based, Escherichia coli", "conditions": "20 μM", "protocol": "Since we aimed to test SOS induction in non-growing cultures, it was essential to use a reporter with no leaky expression in the stationary phase. Therefore, we constructed the plasmid pAED2, based on the low copy-number plasmid pSC101, which contains the cda’ promoter in front of the mScarlet-I-encoding reporter gene.\nOvernight cultures of CFT073 harboring a reporter plasmid were grown in 3 ml of LB supplemented with 100 µg/ml carbenicillin (Cb), then diluted 1:100 into the medium used for testing. For validation of the pANO1::cda’ reporter, an overnight culture was diluted into CA-MHB (supplemented with 40 mM HEPES, pH 7.4, and 100 µg/ml Cb) and grown to an OD600 ≈ 0.5 at 37 °C with shaking at 200 rpm in an Erlenmeyer flask. […] Empty wells were filled with water. […] The experiment was performed in triplicate.\nFor analysis of the SOS induction by anti-cancer compounds, the overnight cultures were diluted either into 1:4 diluted CA-MHB (40 mM HEPES, pH 7.4) or LPM (30 mM MES, pH 5.5) that were supplemented with 100 µg/ml Cb. For analysis of the effect on growing bacteria, the cultures were incubated at 37 °C with shaking at 200 rpm in Erlenmeyer flasks for 90 min, to an OD600 ≈ 0.5. Then, 180 μl aliquots were transferred to 96-well plates, and 20 μl of the 200 μM drug solution was added to achieve a final concentration of 20 μM. The plates were incubated in a microplate reader (BioTek Synergy H1) at 37 °C with continuous shaking for 6 h. OD600 and mScarlet fluorescence were recorded throughout the incubation.\nFor analysis of the effect of anti-cancer compounds on stationary phase- and regrowing bacteria, the cultures were incubated for 24 h at 37 °C with shaking at 200 rpm in Erlenmeyer flasks. […] The samples were incubated for 24 h at 37 °C in standing 1.5 ml tubes. Before and after the drug treatment, 25 μl aliquots were taken and diluted by mixing with 175 μl PBS. OD600 and mScarlet fluorescence were recorded using a microplate reader (BioTek Synergy H1).\nAfter the treatment, stationary-phase bacteria were harvested by centrifugation at 5000 × g for 5 min at 20 °C, washed twice with PBS, and resuspended in 475 μl PBS."}, "[5]": {"system": "non-growing UPEC CFT073", "experiment": "Time-dependent effects of drug treatment on regrowth, UPEC", "type": "cell-based, Escherichia coli", "conditions": "E. coli, 10 µM, OD600 6 h after dilution", "protocol": "as §1, §2\nBacteria were cultivated in 1:4 diluted CA-MHB (40 mM HEPES, pH 7.4) for 24 h. Aliquots were dispensed into a 96-well plate, and compounds were added at a 10 µM concentration. […] The OD600 of the samples was measured to assess regrowth using a microplate reader (BioTek Synergy H1) after 6 h for UPEC and 8 h for P. aeruginosa and S. aureus. […]"}}, "data": [{"smiles": "CN1CCN(c2cc3c(cc2F)c(=O)c(C(=O)O)cn3-c2ccc(F)cc2)CC1", "note": "[Difloxacin]", "values": [{"measurement": "OD600 at 6h or 8h after dilution into drug-free medium (regrowth)", "setting": "[1]; drug conc 0.1", "value": 0.660}, {"measurement": "OD600 at 6h or 8h after dilution into drug-free medium (regrowth)", "setting": "[1]; drug conc 0.5", "value": 0.630}, {"measurement": "OD600 at 6h or 8h after dilution into drug-free medium (regrowth)", "setting": "[1]; drug conc 2.5", "value": 0.506}, {"measurement": "OD600 at 6h or 8h after dilution into drug-free medium (regrowth)", "setting": "[1]; drug conc 10", "value": 0.371}, {"measurement": "EC50", "setting": "[1]", "value": 2.97, "unit": "µM"}, {"measurement": "speed of action: regrowth delay over treatment time", "setting": "[2]", "value": "act more slowly"}]}, {"smiles": "CC(=O)[O][Pt]([NH2])([Cl])([Cl])([NH]C1CCCCC1)[O]C(C)=O", "note": "[Satraplatin]", "values": [{"measurement": "toxicity to TC7 epithelial cells", "setting": "[3]", "value": "toxic"}, {"measurement": "induction of the SOS response in growing UPEC cultures", "setting": "[4]; 6 h, MMC, BLE, ECH in 1:4 CA-MHB pH 7.4, PLI, SAT, EVO in LPM pH 5.5", "value": "induced the SOS response"}, {"measurement": "growth inhibition of growing UPEC", "setting": "[4]; LPM pH 5.5, Fig. S7C,D", "value": "only a slight growth inhibition"}, {"measurement": "speed of action: regrowth delay over treatment time", "setting": "[2]", "value": "act more slowly"}]}, {"smiles": "C=C[C@]1(C)C[C@@H](OC(=O)CSC(C)(C)CNC(=O)[C@H](N)C(C)C)[C@]2(C)[C@H](C)CC[C@]3(CCC(=O)[C@H]32)[C@@H](C)[C@@H]1O", "note": "[Valnemulin]", "values": [{"measurement": "toxicity to TC7 epithelial cells", "setting": "[3]", "value": "toxic"}]}, {"smiles": "C[C@@H]1CN(c2c(F)c(N)c3c(=O)c(C(=O)O)cn(C4CC4)c3c2F)C[C@H](C)N1", "note": "[Sparfloxacin]", "values": [{"measurement": "speed of action: regrowth delay over treatment time", "setting": "[2]", "value": "act more slowly"}]}, {"smiles": "N[C@@H]1[C@H]2CN(c3nc4c(cc3F)c(=O)c(C(=O)O)cn4-c3ccc(F)cc3F)C[C@@H]12", "note": "[Trovafloxacin]", "values": [{"measurement": "speed of action: regrowth delay over treatment time", "setting": "[2]", "value": "act more slowly"}]}, {"smiles": "CCCCC(CC)CNC(=N)NC(=N)NCCCCCCNC(=N)NC(=N)NCC(CC)CCCC", "note": "(centres unmarked) [Alexidine]", "values": [{"measurement": "Regrowth, OD600 at 6h or 8h after dilution into drug-free medium (average)", "setting": "[1]; drug concentration 0.1", "value": 0.539}, {"measurement": "Regrowth, OD600 at 6h or 8h after dilution into drug-free medium (average)", "setting": "[1]; drug concentration 0.5", "value": 0.527}, {"measurement": "Regrowth, OD600 at 6h or 8h after dilution into drug-free medium (average)", "setting": "[1]; drug concentration 2.5", "value": 0.433}, {"measurement": "Regrowth, OD600 at 6h or 8h after dilution into drug-free medium (average)", "setting": "[1]; drug concentration 10", "value": 0.087}, {"measurement": "EC50", "setting": "[1]", "value": 3.28, "unit": "µM"}, {"measurement": "toxicity to TC7 epithelial cells", "setting": "[3]", "value": "toxic"}]}, {"smiles": "C[C@H]1NCc2cc(-c3ccc4c(=O)c(C(=O)O)cn(C5CC5)c4c3OC(F)F)ccc21", "note": "[Garenoxacin]", "values": [{"measurement": "speed of action: regrowth delay over treatment time", "setting": "[5]", "value": "act more slowly"}]}]}
